Experimental data: ChEMBL document CHEMBL1147344, “New Chlorophyll-A-Related Compounds Isolated as Antioxidants from Marine Bivalves” (J Nat Prod, 1993)
Activity calls are given as the source filed them. The calls are words filed in the database; no cut-off is given here.

Tests used:
Format in all cases: functional
[1] = Antioxidant activity assessed as inhibition of lipid peroxidation at 20 ug incubated at 40 degC in dark by paper disk method
[2] = Antioxidant activity assessed as inhibition of lipid peroxidation at 3 ug incubated at 40 degC in dark by paper disk method
[3] = Antioxidant activity assessed as inhibition of lipid peroxidation in dark at 40 degC by paper disk method

Cc1c(C)c2c(c(C)c1O)CC[C@@](C)(CCC[C@H](C)CCC[C@H](C)CCCC(C)C)O2
Activity [1]: Active

C=Cc1c(C)c2cc3nc(c4c5[nH]c(cc6nc(cc1[nH]2)C(C)=C6CC)c(C)c5C(=O)OC4=O)[C@@H](CCC(=O)OC)[C@@H]3C
Activity [2]: Active

C=Cc1c(C)c2cc3nc(c4c5[nH]c(cc6nc(cc1[nH]2)C(C)=C6CC)c(C)c5C(=O)C4=O)[C@@H](CCC(=O)O)[C@@H]3C
Activity [2]: Active

C=Cc1c(C)c2cc3nc4c5c6[nH]c(cc7nc(cc1[nH]2)C(C)=C7CC)c(C)c6C(=O)O[C@@]5(O)C(=O)CC[C@H]4[C@@H]3C
Activity [2]: Active

C=Cc1c(C)c2cc3nc(c4c5[nH]c(cc6nc(cc1[nH]2)C(C)=C6CC)c(C)c5C(=O)OC4=O)[C@@H](CCC(=O)O)[C@@H]3C
Activity [2]: Active

C=Cc1c(C)c2cc3nc4c(c5[nH]c(cc6nc(cc1[nH]2)C(C)=C6CC)c(C)c5C(=O)OC)C(=O)C(=O)CC[C@H]4[C@@H]3C
Activity [2]: Active

C=Cc1c(C)c2cc3nc4c5c6[nH]c(cc7nc(cc1[nH]2)C(C)=C7CC)c(C)c6C(=O)[C@]5(O)C(=O)CC[C@H]4[C@@H]3C
Activity [3]: Active

C=Cc1c(C)c2cc3nc(c4c5[nH]c(cc6nc(cc1[nH]2)C(C)=C6CC)c(C)c5C(=O)C4)[C@@H](CCC(=O)O)[C@@H]3C
Activity [2]: Active

C=Cc1c(C)c2cc3nc4c5c6[nH]c(cc7nc(cc1[nH]2)C(C)=C7CC)c(C)c6C(=O)[C@@]5(O)C(=O)CC[C@H]4[C@@H]3C
Activity [2]: Active
